17 compounds from ChEMBL document CHEMBL3580622 (J Nat Prod, 2015) can be followed below.

A value given as a limit tells only on which side of the number the result lay.

For assay [1], the system named is SMMC-7721. Description: Cytotoxicity against human SMMC7721 cells assessed as reduction in cell viability after 48 hrs by MTT assay. It is filed as functional, cell-based. The settings on record: SMMC-7721, 48 h. (Formazan colour is commonly taken as a measure of viable cells.)
The target of assay [2] is Acetylcholinesterase (Homo sapiens, UniProt P22303). Briefly: Inhibition of human erythrocytes acetylcholinesterase after 30 mins using S-acetylthiocholine iodide substrate by spectrophotometry based Ellman method. (Ellman's reagent forms a yellow product with free thiols.)
Sequence of Acetylcholinesterase (P22303 whole entry): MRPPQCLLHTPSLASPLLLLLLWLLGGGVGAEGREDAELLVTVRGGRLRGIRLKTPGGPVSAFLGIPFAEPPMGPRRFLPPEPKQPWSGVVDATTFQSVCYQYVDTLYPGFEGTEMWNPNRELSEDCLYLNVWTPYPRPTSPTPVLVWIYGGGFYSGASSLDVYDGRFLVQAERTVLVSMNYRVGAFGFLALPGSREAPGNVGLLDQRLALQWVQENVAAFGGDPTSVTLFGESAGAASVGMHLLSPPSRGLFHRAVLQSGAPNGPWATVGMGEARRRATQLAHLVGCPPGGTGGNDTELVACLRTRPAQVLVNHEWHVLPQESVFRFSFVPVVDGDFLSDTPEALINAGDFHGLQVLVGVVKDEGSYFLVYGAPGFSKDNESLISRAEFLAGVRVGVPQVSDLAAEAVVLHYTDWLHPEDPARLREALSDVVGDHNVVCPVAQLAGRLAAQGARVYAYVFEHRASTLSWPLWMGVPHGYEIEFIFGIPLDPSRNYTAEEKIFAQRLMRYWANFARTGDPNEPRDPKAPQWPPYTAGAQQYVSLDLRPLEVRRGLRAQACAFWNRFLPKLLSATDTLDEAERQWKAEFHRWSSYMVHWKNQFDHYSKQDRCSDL
The subject of assay [3] is MCF7. Briefly: Cytotoxicity against human MCF7 cells assessed as reduction in cell viability after 48 hrs by MTT assay. The settings on record: MCF7, 48 h. The format is functional, cell-based.
Assay [4] deals with HL-60. Description: Cytotoxicity against human HL60 cells assessed as reduction in cell viability after 48 hrs by MTT assay. The format is functional, cell-based. The settings on record: HL-60, 48 h.
Assay [5] deals with SW480. Description: Cytotoxicity against human SW480 cells assessed as reduction in cell viability after 48 hrs by MTT assay. It is filed as functional, cell-based. The settings on record: SW480, 48 h.
Assay [6] concerns A549. Description: Cytotoxicity against human A549 cells assessed as reduction in cell viability after 48 hrs by MTT assay. It is filed as functional, cell-based. The settings on record: A549, 48 h.

In general, IC50 refers to the concentration needed to halve the response being measured. Consider `CC(C)=CC[C@]12C[C@@H]3[C@@H]4[C@@H](O)C(C)(C)[C@@H](C(C)C)CC4(C1=O)C(=O)[C@](C(=O)c1ccccc1)(C2=O)C3(C)C`, for which the IC50 in assay [1] stood at 16.5 µM; in assay [2], 26.4 µM; in assay [3], 14.1 µM; in assay [4], 16.5 µM; in assay [5], 17.4 µM; in assay [6], 14.2 µM.

Regarding `CC(C)=CC[C@]12C[C@@H]3[C@@H]4[C@@H](O)C(C)(C)[C@@H](C(C)(C)O)CC4(C1=O)C(=O)[C@](C(=O)c1ccccc1)(C2=O)C3(C)C`, the half-maximal inhibitory concentration (IC50) in assay [1] was 20.8 µM; in assay [3], 28.4 µM; in assay [4], 17.1 µM; in assay [5] it was above 40 µM; in assay [6] it was 24.9 µM.

Regarding `CC(C)=CC[C@H]1C[C@]23C[C@H]4C(C)(C)c5ccccc5C(=O)[C@]45C(=O)[C@](CC=C(C)C)(C2=O)[C@@H](CC=C(C)C)[C@@]1(C)[C@@]35O`, the concentration for half-maximal inhibition (IC50) in assay [1] is 20.8 µM; in assay [3], 27.7 µM; in assay [4], 14 µM; in assay [5], above 40 µM; in assay [6] it was 19.3 µM.

Regarding `CC(C)=CC[C@]12C[C@@H]3[C@H](C=C(C)C)[C@](CC=C(C)C)(C1=O)C(=O)[C@](C(=O)c1ccccc1)(C2=O)C3(C)C` [PLUKENETIONE A], the half-inhibitory concentration (IC50) in assay [1] was 16.6 µM; in assay [3] it was 27.7 µM; in assay [4], 23.6 µM; in assay [5], above 40 µM; in assay [6], 19.8 µM.

For `CC(C)=CCC[C@]1(C)[C@@H](CC=C(C)C)C[C@]2(CC=C(C)C)C(=O)C(CC=C(C)C)=C(O)[C@@]1(C(=O)C(C)C)C2=O`, the IC50 in assay [1], in assay [3], in assay [4], in assay [5] and in assay [6] was above 40 µM throughout.

With `CC(=O)O[C@H]1C(=O)[C@@]2(C)[C@H]([C@H](OC(=O)c3ccccc3)[C@]3(O)C[C@H](OC(=O)[C@H](O)[C@@H](NC(=O)c4ccccc4)c4ccccc4)C(C)=C1C3(C)C)[C@]1(OC(C)=O)CO[C@@H]1C[C@@H]2O` [PACLITAXEL], the half-maximal inhibitory concentration (IC50) in assay [1], in assay [3], in assay [4], in assay [5] and in assay [6] was below 0.008 µM throughout.

Compound `C/C(=C\C[C@]12C[C@H]3C[C@@H]4C(C)(C)CC[C@@]4(C1=O)C(=O)[C@](C(=O)c1ccccc1)(C2=O)C3(C)C)CC/C=C/C(C)C` returned an IC50 in assay [2] of 9.8 µM.

Regarding `CCC(C)C(=O)[C@]12C(=O)[C@]3(CC=C(C)C)OC1(O)[C@](CC=C(C)C)(C[C@H](CC=C(C)C)[C@@]2(C)CCC=C(C)C)C3=O` (some centres undefined), the half-maximal inhibitory concentration (IC50) in assay [1], in assay [3], in assay [4], in assay [5] and in assay [6] was above 40 µM throughout.

Turning to `C=C(C)[C@H]1CC[C@@](C)(O)[C@@H](C2=C(O)C(CC=C(C)C)(CC=C(C)C)C(=O)C(C(=O)C(C)C)=C2O)C1`, the IC50 in assay [2] worked out at 25.4 µM.

Regarding `CC(C)=CCC/C(C)=C/C[C@]12C[C@@H]3[C@H](C=C(C)C)[C@](CC=C(C)C)(C1=O)C(=O)[C@](C(=O)c1ccccc1)(C2=O)C3(C)C`, the IC50 in assay [1], in assay [3], in assay [4], in assay [5] and in assay [6] was above 40 µM in each case.

Take `CC(C)=CCC1(CC=C(C)C)C(=O)[C@]2(C[C@H]3[C@@H](CC[C@@]3(C)O)[C@](C)(O)C2)C(=O)C(C(=O)C(C)C)=C1O`: the 50% inhibitory concentration (IC50) in assay [1], in assay [3], in assay [4], in assay [5] and in assay [6] was above 40 µM throughout.

As for `CC(C)=CCC/C(C)=C/C[C@]12C[C@@H]3[C@@H]4[C@@H](O)C(C)(C)[C@@H](C(C)C)CC4(C1=O)C(=O)[C@](C(=O)c1ccccc1)(C2=O)C3(C)C`, the IC50 amounted to 14.2 µM in assay [1]; 17.6 µM in assay [3]; 14.5 µM in assay [4]; 19.1 µM in assay [5]; 13.3 µM in assay [6].

As for `CCC(C)C(=O)[C@@]12C(=O)C(CC=C(C)C)=C3O[C@H](C(C)(C)O)C[C@]3(C[C@H](CC=C(C)C)[C@@]1(C)CCC=C(C)C)C2=O` (some centres undefined), the IC50 in assay [1], in assay [3], in assay [4], in assay [5] and in assay [6] was above 40 µM in each case.

In the case of `CC(C)=CCC[C@]1(C)[C@@H](CC=C(C)C)C[C@]23C[C@@H](C(C)(C)O)OC2=C(CC=C(C)C)C(=O)[C@@]1(C(=O)C(C)C)C3=O`, the half-maximal inhibitory concentration (IC50) in assay [1], in assay [3], in assay [4], in assay [5] and in assay [6] was above 40 µM in each case.

Regarding `CCC(C)C(=O)[C@]12C(=O)[C@]3(CC=C(C)C)C[C@H](CC=C(C)C)[C@@]1(C)CC[C@@H](C(C)(C)O)OC2=C(CC=C(C)C)C3=O` (some centres undefined), the 50% inhibitory concentration (IC50) in assay [2] stood at 37.2 µM.

In the case of `CC(C)=CCC[C@]1(C)[C@@H](CC=C(C)C)C[C@]2(CC=C(C)C)C(=O)[C@@]3(CC=C(C)C)OC2(O)[C@]1(C(=O)C(C)C)C3=O`, the IC50 in assay [1], in assay [3], in assay [4], in assay [5] and in assay [6] was above 40 µM each time.

For the compound `CC(C)=CCC[C@]1(C)[C@@H](CC=C(C)C)C[C@]23C[C@@H](C(C)(C)O)OC2=C(CC=C(C)C)C(=O)[C@@]1(C(=O)c1ccccc1)C3=O`, the IC50 in assay [1], in assay [3], in assay [4], in assay [5] and in assay [6] was above 40 µM each time.
